Laboratory results reported in patent US20220257633A1, “METHOD OF TREATING AGE-RELATED MACULAR DEGENERATION” (THE PROVOST, FELLOWS, FOUNDATION SCHOLARS, & THE O, priority 2021, published 2022).

Tested on: CD45+CD66b−CD14+CD16+ monocytes
Assay: Surface CD86 on monocytes by flow cytometry
Assay type: cell-based, human
Details: PBMCs treated with MCP-1 for 24 h; CD86 MFI
Protocol: PBMCs were labelled for the investigation of monocytes with the following fluorochrome-labelled antibodies: anti-CD16 (3G8) anti-CD86 (FM95) anti-CD45 (2D1); anti-CD66b (G10F5); CD14 (Tuk4); CD80 (2D10); (Biolegend or Miltenyi). Each staining well contained 4×10^5 cells; cells were stained with LIVE/DEAD Aqua (Molecular Probes) followed by staining for 20 min on ice, washed, and analyzed by flow cytometry immediately. Flow cytometry was carried out on a BD LSR Fortessa cell analyzer and analyzed using FlowJo software (Tree Star).

## MCP-1: chemokine monocyte chemoattractant protein CCL2/MCP-1
  increase of CD86 membrane expression: ~1.4 fold
